In ChEMBL document CHEMBL5614384, “Synthesis and antiproliferative activity of (-)-cleistenolide, (6S)-cleistenolide and 4-substituted cleistenolide analogues” (Bioorg Med Chem, 2024):

Key:
HL-60 = assay: Antiproliferative activity against human HL-60 cells assessed as inhibition of cell growth incubated for 72 hrs by MTT assay; type: functional, cell-based; details: HL-60, 72 h
MCF7 [1] = assay: Potency index, ratio of cleistenolide IC50 to test compound IC50 for antiproliferative activity against human MCF7 cells assessed as inhibition of cell growth incubated for 72 hrs by MTT assay; type: functional
[2] = (§1) Cytotoxicity against human MRC5 cells assessed as inhibition of cell growth incubated for 72 hrs by MTT assay; type: toxicity, cell-based; details: human, MRC5 cells
Raji [3] = assay: Antiproliferative activity against human Raji cells assessed as inhibition of cell growth incubated for 72 hrs by MTT assay; type: functional, cell-based
Jurkat = assay: Antiproliferative activity against human Jurkat cells assessed as inhibition of cell growth incubated for 72 hrs by MTT assay; type: functional, cell-based
K562 [4] = assay: Antiproliferative activity against human K562 cells assessed as inhibition of cell growth incubated for 72 hrs by MTT assay; type: functional, cell-based; details: K562, 72 h
HeLa [5] = assay: Antiproliferative activity against human HeLa cells assessed as inhibition of cell growth incubated for 72 hrs by MTT assay; type: functional, cell-based
A549 [6] = assay: Antiproliferative activity against human A549 cells assessed as inhibition of cell growth incubated for 72 hrs by MTT assay; type: functional, cell-based; details: A549, 72 h
MCF7 [7] = assay: Antiproliferative activity against estrogen receptor positive human MCF7 cells assessed as inhibition of cell growth incubated for 72 hrs by MTT assay; type: functional, cell-based; details: MCF7, 72 h
MDA-MB-231 = assay: Antiproliferative activity against estrogen receptor negative human MDA-MB-231 cells assessed as inhibition of cell growth incubated for 72 hrs by MTT assay; type: functional, cell-based; details: MDA-MB-231, 72 h
K562 [8] = assay: Potency index, ratio of cleistenolide IC50 to test compound IC50 for antiproliferative activity against human K562 cells assessed as inhibition of cell growth incubated for 72 hrs by MTT assay; type: functional
A549 [9] = assay: Potency index, ratio of doxorubicin IC50 to test compound IC50 for antiproliferative activity against human A549 cells assessed as inhibition of cell growth incubated for 72 hrs by MTT assay; type: functional
A549 [10] = assay: Potency index, ratio of cleistenolide IC50 to test compound IC50 for antiproliferative activity against human A549 cells assessed as inhibition of cell growth incubated for 72 hrs by MTT assay; type: functional
MRC5 = assay: as §1; type: toxicity, cell-based; details: mrc5
HeLa [11] = assay: Potency index, ratio of cleistenolide IC50 to test compound IC50 for antiproliferative activity against human HeLa cells assessed as inhibition of cell growth incubated for 72 hrs by MTT assay; type: functional
Raji [12] = assay: Potency index, ratio of cleistenolide IC50 to test compound IC50 for antiproliferative activity against human Raji cells assessed as inhibition of cell growth incubated for 72 hrs by MTT assay; type: functional

Row | SMILES | IC50 (HL-60) [µM] | Ratio IC50 (MCF7 [1]) | IC50 at 72 h [2] [µM] | IC50 (Raji [3]) [µM] | IC50 (Jurkat) [µM] | IC50 (K562 [4]) [µM] | IC50 (HeLa [5]) [µM] | IC50 (A549 [6]) [µM] | IC50 (MCF7 [7]) [µM] | IC50 (MDA-MB-231) [µM] | Ratio IC50 (K562 [8]) | Ratio IC50 (A549 [9]) | Ratio IC50 (A549 [10]) | IC50 (MRC5) [µM] | Ratio IC50 (HeLa [11]) | Ratio IC50 (Raji [12])
1 | CC(=O)O[C@H](COC(=O)c1ccccc1)[C@H]1OC(=O)C=C[C@H]1OC(=O)C(c1ccccc1)c1ccccc1 | 4.64 | >9 | > 100 | 14 | 14.5 | 6.32 | 9.75 | 11 | 2.83 | 17.6 |  |  |  |  |  | 
2 | CC(=O)O[C@H](COC(=O)c1ccccc1)[C@H]1OC(=O)C=C[C@H]1OC(=O)/C=C/c1ccc(F)cc1 | 16.1 |  | > 100 | 26.4 | 28.6 | 6.75 | 17.9 | 87.6 | 5.28 | 17.7 |  |  |  |  |  | 
3 | CC(=O)O[C@@H]1C=CC(=O)O[C@@H]1[C@@H](COC(=O)c1ccccc1)OC(C)=O |  |  | > 100 |  |  |  |  |  |  |  |  |  |  |  |  | 
4 | CC(=O)OC[C@@H](O)[C@H]1OC(=O)C=C[C@H]1O | 9.62 |  | > 100 | 19.8 | 17.5 | 1.18 | 5.36 | 12.5 | 4.58 | 45.6 | 5 |  |  |  |  | 
5 | CC(=O)OC[C@@H](OC(C)=O)[C@H]1OC(=O)C=C[C@H]1OCc1ccccc1 | 1.39 |  | > 100 | 11.7 | 19 | 1.12 | 6.17 | 23.2 | 15.5 | 16.1 | 5 |  |  |  |  | 
6 | COc1ccc(/C=C/C(=O)O[C@@H]2C=CC(=O)O[C@@H]2[C@@H](COC(=O)c2ccccc2)OC(C)=O)cc1 | 15.3 |  | > 100 | 25.7 | 24.1 | 1.28 | 15.6 | 41.6 | 12.8 | 26.6 | 5 |  |  |  |  | 
7 | CC(=O)O[C@H](COC(=O)c1ccccc1)[C@H]1OC(=O)C=C[C@H]1OC(=O)/C=C/c1ccc([N+](=O)[O-])cc1 | 24.5 |  | > 100 | 25 | 23.5 | 5.82 | 13.3 | 2.55 | 21.3 | 15.5 |  | ~2 | >6 |  |  | 
8 | CC(=O)O[C@H](COC(=O)c1ccccc1)[C@H]1OC(=O)C=C[C@H]1OS(C)(=O)=O | 3.63 | ~8 |  | 17 | 15.2 | 8.78 | 14.2 | 11.3 | 3.26 | 14.9 |  |  |  | > 100 |  | 
9 | CC(=O)O[C@H](COC(=O)c1ccccc1)[C@H]1OC(=O)C=C[C@H]1O[Si](c1ccccc1)(c1ccccc1)C(C)(C)C | 5.64 |  | > 100 | 25.1 | 19.7 | 5.85 | 3.35 | 30.6 | 9.39 | 8.36 |  |  |  |  | >2 | 
10 | CC(=O)OC[C@@H](OC(C)=O)[C@H]1OC(=O)C=C[C@H]1OC(=O)c1ccccc1 | 4.39 |  | > 100 | 10.7 | 18.3 | 2.65 | 10.8 | 22.9 | 5.01 | 15.9 |  |  |  |  |  | 
11 | CC(=O)O[C@H](COC(=O)c1ccccc1)[C@H]1OC(=O)C=C[C@H]1OS(=O)(=O)c1ccc(C)cc1 | 20.9 |  | > 100 | 18.9 | 26.6 | 4.5 | 15.8 | 12.4 | 11.3 | 14.8 |  |  |  |  |  | 
12 | O=C1C=C[C@@H](OCc2ccccc2)[C@@H]([C@@H](COC(=O)c2ccccc2)OCc2ccccc2)O1 | 3.34 |  | > 100 | 19.2 | 12 | 0.67 | 8.3 | 12.9 | 5.9 | 19.2 | >10 |  |  |  |  | 
13 | CC(=O)O[C@@H](COC(=O)c1ccccc1)[C@H]1OC(=O)C=C[C@H]1OC(C)=O | 9.84 |  | 98.2 | 13.1 | 15.5 | 5.58 | 6.79 | 16.2 | 15.1 | 23.7 |  |  |  |  |  | 
14 | CC(=O)O[C@H](COC(=O)c1ccccc1)[C@H]1OC(=O)C=C[C@H]1O[Si](C)(C)C(C)(C)C | 11.6 |  | > 100 | 18.8 | 16.7 | 6.72 | 9.96 | 12.1 | 4.14 | 35.4 |  |  |  |  |  | 
15 | CC1(C)O[C@H]2O[C@@H]3C=CC(=O)O[C@@H]3[C@H]2O1 | 22.3 |  | > 100 | 29.4 | 27.2 | 3.4 | 6.09 | 16.5 | 8.26 | 24.4 |  |  |  |  |  | 
16 | CC(=O)O[C@H](COC(=O)c1ccccc1)[C@H]1OC(=O)C=C[C@H]1OC(=O)/C=C/c1ccccc1 | 6.36 |  | > 100 | 3.3 | 11.8 | 0.76 | 7 | 8.55 | 22.5 | 4.29 | >10 |  |  |  |  | >10
17 | COc1ccc(/C=C/C(=O)O[C@@H]2C=CC(=O)O[C@@H]2[C@@H](COC(=O)c2ccccc2)OC(C)=O)cc1OC | 5.75 |  | > 100 | 26.4 | 22.6 | 4.52 | 8.73 | 13.6 | 6.35 | 15.9 |  |  |  |  |  | 
18 | O=C1C=C[C@@H](O)[C@@H]([C@@H](O)COC(=O)c2ccccc2)O1 | 12.3 |  | > 100 | 11.3 | 15.3 | 1.23 | 4.69 | 19.9 | 10.5 | 14.1 | 5 |  |  |  |  | 
19 | CC(=O)O[C@H](COC(=O)c1ccccc1)[C@H]1OC(=O)C=C[C@H]1OC(=O)c1c(Cl)cc(Cl)cc1Cl | 22.9 |  | > 100 | 23.6 | 9.4 | 11.9 | 8.71 | 5.02 | 28.4 | 23.4 |  |  |  |  |  | 
20 | COc1cccc(C(=O)O[C@@H]2C=CC(=O)O[C@@H]2[C@@H](COC(=O)c2ccccc2)OC(C)=O)c1 | 1.7 |  | > 100 | 25.2 | 25.3 | 1.59 | 9.43 | 12.1 | 8.79 | 25.6 | 5 |  |  |  |  | 
